Tested on: Spontaneously hypertensive rats (SHR)
Assay: Acute Efficacy in Spontaneously Hypertensive Rats (SHR), telemetry blood pressure
Type: in vivo, rat
Conditions: single oral dose 0.3 mpk P.O.
Method in brief: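 Male SHR with aortic telemetry catheters, 14-day recovery, conscious and freely moving; single oral gavage in 10% transcutol/20% Cremophor/70% water. BP sampled 30 s every 10 min, hourly averages minus prior-day vehicle baseline; value is maximum peak SBP decrease at stated mg/kg PO dose.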

Row | SMILES | Maximum peak decrease of systolic blood pressure (SBP) in SHR, Category
1 | Nc1nc(-c2nn(CCCC(F)(F)F)c3ncccc23)nc2c1C(C(=O)NC1CC1)(C1CC1)C(=O)N2 (stereo not shown) [Example 246, 4-amino-N,5-dicyclopropyl-6-oxo-2-[1-(4,4,4-trifluorobutyl)-1H-pyrazolo[3,4-b]pyridin-3-yl]-6,7-dihydro-5H-pyrrolo[2,3-d]pyrimidine-5-carboxamide] | C (Category C=SBP in SHRs>40 mmHg)
2 | CC1(c2nc(C(F)(F)F)no2)C(=O)Nc2nc(-c3nc(CCCC(F)(F)F)n4cc(F)ccc34)nc(N)c21 (stereo not shown) [Example 248, 4-amino-2-[6-fluoro-3-(4,4,4-trifluorobutyl)imidazo[1,5-a]pyridin-1-yl]-5-methyl-5-[3-(trifluoromethyl)-1,2,4-oxadiazol-5-yl]-5,7-dihydro-6H-pyrrolo[2,3-d]pyrimidin-6-one] | B (Category B=SBP in SHRs 25-40 mmHg)
3 | CC1(C(=O)NC2CC2)C(=O)Nc2nc(-c3nc(CCC(F)(F)C(F)(F)F)n4ncccc34)nc(N)c21 (stereo not shown) [Example 251, 4-amino-H-cyclopropyl-5-methyl-6-oxo-2-[7-(3,3,4,4,4-pentafluorobutyl)imidazo[1,5-b]pyridazin-5-yl]-6,7-dihydro-5H-pyrrolo[2,3-d]pyrimidine-5-carboxamide] | C (Category C=SBP in SHRs>40 mmHg)
4 | CC1(C(=O)NC2CC2)C(=O)Nc2nc(-c3nc(CCC(F)(F)C(F)(F)F)n4cc(F)ccc34)nc(N)c21 (stereo not shown) [Example 252, 4-amino-H-cyclopropyl-2-[6-fluoro-3-(3,3,4,4,4-pentafluorobutyl)imidazo[1,5-a]pyridin-1-yl]-5-methyl-6-oxo-6,7-dihydro-5H-pyrrolo[2,3-d]pyrimidine-5-carboxamide] | B (Category B=SBP in SHRs 25-40 mmHg)
5 | CC1(C(=O)Nc2cccnc2)C(=O)Nc2nc(-c3nc(CCC(F)(F)C(F)(F)F)n4cc(F)ccc34)nc(N)c21 (stereo not shown) [Example 253, 4-amino-2-[6-fluoro-3-(3,3,4,4,4-pentafluorobutyl)imidazo[1,5-a]pyridin-1-yl]-5-methyl-6-oxo-H-pyridin-3-yl-6,7-dihydro-5H-pyrrolo[2,3-d]pyrimidine-5-carboxamide] | A (Category A=SBP in SHRs<25 mmHg)
6 | CC1(c2nnc(C3CC3)o2)C(=O)Nc2nc(-c3nc(CCC(F)(F)C(F)(F)F)n4ncccc34)nc(N)c21 (stereo not shown) [Example 255, 4-amino-5-(5-cyclopropyl-1,3,4-oxadiazol-2-yl)-5-methyl-2-[7-(3,3,4,4,4-pentafluorobutyl)imidazo[1,5-b]pyridazin-5-yl]-5,7-dihydro-6H-pyrrolo[2,3-d]pyrimidin-6-one] | B (Category B=SBP in SHRs 25-40 mmHg)
7 | CC1(C(=O)NC2CC2)C(=O)Nc2nc(-c3nc(CCC(F)(F)F)n4ncccc34)nc(N)c21 (stereo not shown) [Example 256, 4-amino-H-cyclopropyl-5-methyl-6-oxo-2-[7-(3,3,3-trifluoropropyl)imidazo[1,5-b]pyridazin-5-yl]-6,7-dihydro-5H-pyrrolo[2,3-d]pyrimidine-5-carboxamide] | B (Category B=SBP in SHRs 25-40 mmHg)
8 | CNc1nc(-c2nn(CCC(F)(F)C(F)(F)F)c3cc(Cl)ccc23)nc2c1C(C)(C(=O)NC1CC1)C(=O)N2 (stereo not shown) [Example 257, 2-[6-chloro-1-(3,3,4,4,4-pentafluorobutyl)-1H-indazol-3-yl)-N-cyclopropyl-5-methyl-4-(methylamino)-6-oxo-6,7-dihydro-5H-pyrrolo[2,3-d]pyrimidine-5-carboxamide] | A (Category A=SBP in SHRs<25 mmHg)
9 | CNC(=O)C1(C)C(=O)Nc2nc(-c3nn(CCC(F)(F)C(F)(F)F)c4cc(Cl)ccc34)nc(NC)c21 (stereo not shown) [Example 258, 2-[6-chloro-1-(3,3,4,4,4-pentafluorobutyl)-1H-indazol-3-yl]-N,5-dimethyl-4-(methylamino)-6-oxo-6,7-dihydro-5H-pyrrolo[2,3-d]pyrimidine-5-carboxamide] | A (Category A=SBP in SHRs<25 mmHg)
10 | CNC(=O)C1(C)C(=O)Nc2nc(-c3nn(CCC(F)(F)C(F)(F)F)c4ncccc34)nc(NC)c21 (stereo not shown) [Example 259, N,5-dimethyl-4-(methylamino)-6-oxo-2-[1-(3,3,4,4,4-pentafluorobutyl)-1H-pyrazolo[3,4-b]pyridin-3-yl]-6,7-dihydro-5H-pyrrolo[2,3-d]pyrimidine-5-carboxamide] | A (Category A=SBP in SHRs<25 mmHg)
11 | CNc1nc(-c2nc(CCC(F)(F)C(F)(F)F)n3ncccc23)nc2c1C(C)(C(=O)NC1CC1)C(=O)N2 (stereo not shown) [Example 260, N-cyclopropyl-5-methyl-4-(methylamino)-6-oxo-2-[7-(3,3,4,4,4-pentafluorobutyl)imidazo[1,5-b]pyridazin-5-yl]-6,7-dihydro-5H-pyrrolo[2,3-d]pyrimidine-5-carboxamide] | B (Category B=SBP in SHRs 25-40 mmHg)
12 | CNc1nc(-c2nn(CCC(F)(F)C(F)(F)F)c3ncccc23)nc2c1C(C)(c1nnc(C3CC3)o1)C(=O)N2 (stereo not shown) [Example 261, 5-(5-cyclopropyl-1,3,4-oxadiazol-2-yl)-5-methyl-4-(methylamino)-2-[1-(3,3,4,4,4-pentafluorobutyl)-1H-pyrazolo[3,4-b]pyridin-3-yl]-5,7-dihydro-6H-pyrrolo[2,3-d]pyrimidin-6-one] | C (Category C=SBP in SHRs>40 mmHg)
13 | CNc1nc(-c2nn(CCC(F)(F)C(F)(F)F)c3ncccc23)nc2c1C(C(=O)NC1CC1)(C1CC1)C(=O)N2 (stereo not shown) [Example 262, N,5-dicyclopropyl-4-(methylamino)-6-oxo-2-[1-(3,3,4,4,4-pentafluorobutyl)-1H-pyrazolo[3,4-b]pyridin-3-yl]-6,7-dihydro-5H-pyrrolo[2,3-d]pyrimidine-5-carboxamide] | A (Category A=SBP in SHRs<25 mmHg)
14 | CNc1nc(-c2nn(CCC(F)(F)F)c3ncccc23)nc2c1C(C)(C(=O)NC1CC1)C(=O)N2 (stereo not shown) [Example 263, N-cyclopropyl-5-methyl-4-(methylamino)-6-oxo-2-[1-(3,3,3-trifluoropropyl)-1H-pyrazolo[3,4-b]pyridin-3-yl]-6,7-dihydro-5H-pyrrolo[2,3-d]pyrimidine-5-carboxamide] | A (Category A=SBP in SHRs<25 mmHg)
15 | CNc1nc(-c2nn(CCCC(F)(F)F)c3ncccc23)nc2c1C(C)(C(=O)NC1CC1)C(=O)N2 (stereo not shown) [Example 264, N-cyclopropyl-5-methyl-4-(methylamino)-6-oxo-2-[1-(4,4,4-trifluorobutyl)-1H-pyrazolo[3,4-b]pyridin-3-yl]-6,7-dihydro-5H-pyrrolo[2,3-d]pyrimidine-5-carboxamide] | B (Category B=SBP in SHRs 25-40 mmHg)
16 | CC1(C(=O)NC2CC2)C(=O)Nc2nc(-n3nc(CCC(F)(F)C(F)(F)F)c4ncccc43)nc(N)c21 (stereo not shown) [Example 266, 4-amino-N-cyclopropyl-5-methyl-6-oxo-2-[3-(3,3,4,4,4-pentafluorobutyl)-1H-pyrazolo[4,3-b]pyridin-1-yl]-6,7-dihydro-5H-pyrrolo[2,3-d]pyrimidine-5-carboxamide] | C (Category C=SBP in SHRs>40 mmHg)
17 | CC1(C(=O)NC2CC2)C(=O)Nc2nc(-c3nn(CCC(F)(F)C(F)(F)F)c4ncc(Cl)cc34)nc(N)c21 (stereo not shown) [Example 267, 4-amino-2-[5-chloro-1-(3,3,4,4,4-pentafluorobutyl)-1H-pyrazolo[3,4-b]pyridin-3-yl]-N-cyclopropyl-5-methyl-6-oxo-6,7-dihydro-5H-pyrrolo[2,3-d]pyrimidine-5-carboxamide] | B (Category B=SBP in SHRs 25-40 mmHg)

Same assay, conditions: single oral dose 1 mpk P.O.

Row | SMILES | Maximum peak decrease of systolic blood pressure (SBP) in SHR, Category
18 | NC(=O)C1(C2CC2)C(=O)Nc2nc(-c3nn(CCCC(F)(F)F)c4ncccc34)nc(N)c21 (stereo not shown) [Example 247, 4-amino-5-cyclopropyl-6-oxo-2-[1-(4,4,4-trifluorobutyl)-1H-pyrazolo[3,4-b]pyridin-3-yl]-6,7-dihydro-5H-pyrrolo[2,3-d]pyrimidine-5-carboxamide] | C (Category C=SBP in SHRs>40 mmHg)
19 | Cc1nc(C2(C)C(=O)Nc3nc(-c4nc(CCCC(F)(F)F)n5cc(Cl)ccc45)nc(N)c32)no1 (stereo not shown) [Example 249, 4-amino-2-[6-chloro-3-(4,4,4-trifluorobutyl)imidazo[1,5-a]pyridin-1-yl]-5-methyl-5-(5-methyl-1,2,4-oxadiazol-3-yl)-5,7-dihydro-6H-pyrrolo[2,3-d]pyrimidin-6-one] | A (Category A=SBP in SHRs<25 mmHg)
20 | CC1(C(=O)NC2CC2)C(=O)Nc2nc(-c3nc(CCC(F)(F)C(F)(F)F)n4cc(Cl)ccc34)nc(N)c21 (stereo not shown) [Example 250, 4-amino-2-[6-chloro-3-(3,3,4,4,4-pentafluorobutyl)imidazo[1,5-a]pyridin-1-yl]-H-cyclopropyl-5-methyl-6-oxo-6,7-dihydro-5H-pyrrolo[2,3-d]pyrimidine-5-carboxamide] | C (Category C=SBP in SHRs>40 mmHg)
21 | CC1(C(N)=O)C(=O)Nc2nc(-c3nc(CCC(F)(F)C(F)(F)F)n4ncccc34)nc(N)c21 (stereo not shown) [Example 254, 4-amino-5-methyl-6-oxo-2-[7-(3,3,4,4,4-pentafluorobutyl)imidazo[1,5-b]pyridazin-5-yl]-6,7-dihydro-5H-pyrrolo[2,3-d]pyrimidine-5-carboxamide] | B (Category B=SBP in SHRs 25-40 mmHg)
22 | CN(C)C(=O)C1(C)C(=O)Nc2nc(-n3nc(CCC(F)(F)C(F)(F)F)c4cc(Cl)ccc43)nc(N)c21 (stereo not shown) [Example 265, 4-amino-2-[5-chloro-3-(3,3,4,4,4-pentafluorobutyl)-1H-indazol-1-yl]-N,N,5-trimethyl-6-oxo-6,7-dihydro-5H-pyrrolo[2,3-d]pyrimidine-5-carboxamide] | C (Category C=SBP in SHRs>40 mmHg)

— patent US9365574B2, “Soluble guanylate cyclase activators” (Merck Sharp & Dohme Corp., priority 2010, dated 2016)
